Source: ChEMBL document CHEMBL1157614, “5-Cyclic amine-3-arylsulfonylindazoles as novel 5-HT6 receptor antagonists” (J Med Chem, 2010)
≈ marks a conversion by molar mass, not a printed value. Calls of active or inactive are those of the source. The rule behind the calls is not given here.

How the values were obtained:
[1] = biological target: T1, 5-hydroxytryptamine receptor 2B (Homo sapiens, UniProt P41595); experiment: Antagonist activity at human 5HT2B receptor expressed in CHO cells assessed as intracellular cAMP formation by RIA; assay type: functional, cell-based
[2] = biological target: T1, 5-hydroxytryptamine receptor 2B; experiment: Displacement of [3H]5HT from human 5HT2B receptor expressed in CHO cells by scintillation counting; assay type: cell-based
[3] = biological target: T1, 5-hydroxytryptamine receptor 2B; experiment: Agonist activity at human 5HT2B receptor expressed in CHO cells assessed as intracellular cAMP formation by RIA; assay type: functional, cell-based
[4] = biological target: T2, 5-hydroxytryptamine receptor 6 (Homo sapiens, UniProt P50406); experiment: Displacement of [3H]LSD from human 5HT6 receptor by scintillation counting
[5] = biological target: T2, 5-hydroxytryptamine receptor 6; experiment: Antagonist activity at human cloned 5HT6 receptor expressed in human HeLa cells assessed as intracellular cAMP formation by RIA; assay type: functional, cell-based
Rattus norvegicus [6] = experiment: Cognitive enhancing effect in Long-Evans rat assessed as improvement of recognition memory at 3 mg/kg, ip administered 1 hr prior to learning trial measured after 48 hrs during testing trial by novel object recognition test; assay type: functional, organism-based; design: dose 3 mg/kg
CYP2D6 = CYP2D6 (Homo sapiens, UniProt P10635); experiment: Inhibition of CYP2D6 at 3 uM; assay type: ADME
hERG (KCNH2) = hERG (KCNH2) (Homo sapiens, UniProt Q12809); experiment: Inhibition of human ERG at 10 uM
Rattus norvegicus [7] = experiment: Permeability across blood brain barrier in Long-Evans rat at 10 mg/kg, ip administered as single dose; assay type: ADME, organism-based; design: dose 10 mg/kg, route intraperitoneal; conditions: in vivo
[8] = Solubility at pH 7.4; assay type: physicochemical; conditions: buffer
[9] = biological target: T3, Alpha-2A adrenergic receptor (Homo sapiens, UniProt P08913); experiment: Binding affinity to alpha2A adrenergic receptor
T3 sequence (P08913 whole entry): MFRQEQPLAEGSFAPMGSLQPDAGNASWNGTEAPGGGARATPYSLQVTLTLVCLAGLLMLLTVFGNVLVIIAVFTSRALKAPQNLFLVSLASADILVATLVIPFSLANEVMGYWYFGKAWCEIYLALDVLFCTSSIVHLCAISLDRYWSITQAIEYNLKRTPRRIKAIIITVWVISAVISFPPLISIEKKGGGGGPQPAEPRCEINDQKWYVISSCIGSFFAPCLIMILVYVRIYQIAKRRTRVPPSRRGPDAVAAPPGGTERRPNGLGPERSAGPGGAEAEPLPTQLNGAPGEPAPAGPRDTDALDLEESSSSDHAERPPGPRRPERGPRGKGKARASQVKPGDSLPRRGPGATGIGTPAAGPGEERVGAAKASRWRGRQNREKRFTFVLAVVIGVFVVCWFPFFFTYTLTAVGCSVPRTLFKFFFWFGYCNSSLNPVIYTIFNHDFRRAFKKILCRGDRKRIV

[10] = biological target: 5-hydroxytryptamine receptor 1B (Homo sapiens, UniProt P28222); experiment: Binding affinity to 5HT1B receptor
CYP3A4 = CYP3A4 (Homo sapiens, UniProt P08684); experiment: Inhibition of CYP3A4 at 3 uM; assay type: ADME
[11] = Half life in rat microsomes; assay type: ADME, Microsome
[12] = biological target: 5-hydroxytryptamine receptor 1D (Homo sapiens, UniProt P28221); experiment: Binding affinity to 5HT1D receptor
CYP2C9 = CYP2C9 (Homo sapiens, UniProt P11712); experiment: Inhibition of CYP2C9 at 3 uM; assay type: ADME
[13] = biological target: T4, 5-hydroxytryptamine receptor 1A (Homo sapiens, UniProt P08908); experiment: Binding affinity to 5HT1A receptor
T4 sequence (P08908 whole entry): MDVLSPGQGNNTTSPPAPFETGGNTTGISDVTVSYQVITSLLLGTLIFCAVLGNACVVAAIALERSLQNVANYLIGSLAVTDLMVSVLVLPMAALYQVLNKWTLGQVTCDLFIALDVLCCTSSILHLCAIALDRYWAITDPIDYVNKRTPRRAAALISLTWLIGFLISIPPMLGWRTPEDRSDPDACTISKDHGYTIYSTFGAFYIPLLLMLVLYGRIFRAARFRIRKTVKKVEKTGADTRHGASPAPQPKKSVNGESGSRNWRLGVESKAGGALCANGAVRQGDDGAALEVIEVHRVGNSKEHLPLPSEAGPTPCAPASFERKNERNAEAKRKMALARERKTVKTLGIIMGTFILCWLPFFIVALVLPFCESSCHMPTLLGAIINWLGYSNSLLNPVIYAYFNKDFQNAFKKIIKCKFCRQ

[14] = Permeability at pH 7.4 by PAMPA; assay type: ADME; conditions: read-out: permeability
D(2) dopamine receptor = D(2) dopamine receptor (Homo sapiens, UniProt P14416); experiment: Binding affinity to dopamine D2 receptor
D(2) dopamine receptor, sequence (P14416 whole entry): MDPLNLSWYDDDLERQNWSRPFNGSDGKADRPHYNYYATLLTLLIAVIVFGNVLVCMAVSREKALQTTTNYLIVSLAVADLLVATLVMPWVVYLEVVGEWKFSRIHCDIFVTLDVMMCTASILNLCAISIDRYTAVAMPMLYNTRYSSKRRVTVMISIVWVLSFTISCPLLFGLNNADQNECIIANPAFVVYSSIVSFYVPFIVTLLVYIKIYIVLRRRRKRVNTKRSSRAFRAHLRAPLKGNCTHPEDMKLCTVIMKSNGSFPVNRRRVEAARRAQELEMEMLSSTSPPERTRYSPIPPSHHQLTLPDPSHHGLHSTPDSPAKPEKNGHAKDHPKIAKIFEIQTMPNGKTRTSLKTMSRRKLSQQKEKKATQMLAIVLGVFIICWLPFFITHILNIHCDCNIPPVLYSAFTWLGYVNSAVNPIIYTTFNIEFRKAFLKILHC

T1 sequence (P41595 whole entry): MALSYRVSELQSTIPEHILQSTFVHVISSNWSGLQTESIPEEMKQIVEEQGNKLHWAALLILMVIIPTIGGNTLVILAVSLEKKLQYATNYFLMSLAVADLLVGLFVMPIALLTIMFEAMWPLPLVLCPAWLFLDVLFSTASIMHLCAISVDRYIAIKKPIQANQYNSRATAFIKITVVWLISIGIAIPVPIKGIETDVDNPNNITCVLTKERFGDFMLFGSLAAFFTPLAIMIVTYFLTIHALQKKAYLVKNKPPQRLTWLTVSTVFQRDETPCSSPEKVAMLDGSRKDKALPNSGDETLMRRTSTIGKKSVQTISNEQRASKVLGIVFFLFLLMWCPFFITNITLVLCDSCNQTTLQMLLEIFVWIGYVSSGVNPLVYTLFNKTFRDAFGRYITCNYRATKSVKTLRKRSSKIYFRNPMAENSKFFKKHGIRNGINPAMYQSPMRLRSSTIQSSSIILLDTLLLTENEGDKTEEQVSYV
T2 sequence (P50406 whole entry): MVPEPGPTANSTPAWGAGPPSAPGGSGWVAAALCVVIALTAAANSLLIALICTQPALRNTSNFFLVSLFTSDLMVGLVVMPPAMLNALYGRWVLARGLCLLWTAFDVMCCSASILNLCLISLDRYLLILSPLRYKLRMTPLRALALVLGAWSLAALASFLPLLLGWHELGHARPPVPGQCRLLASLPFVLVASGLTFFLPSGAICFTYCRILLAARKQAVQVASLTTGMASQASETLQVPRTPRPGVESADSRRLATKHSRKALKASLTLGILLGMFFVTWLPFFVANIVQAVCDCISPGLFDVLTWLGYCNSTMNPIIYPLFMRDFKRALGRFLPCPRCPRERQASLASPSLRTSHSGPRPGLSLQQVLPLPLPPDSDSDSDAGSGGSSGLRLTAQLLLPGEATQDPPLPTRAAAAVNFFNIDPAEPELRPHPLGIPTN
hERG (KCNH2), sequence (Q12809 whole entry): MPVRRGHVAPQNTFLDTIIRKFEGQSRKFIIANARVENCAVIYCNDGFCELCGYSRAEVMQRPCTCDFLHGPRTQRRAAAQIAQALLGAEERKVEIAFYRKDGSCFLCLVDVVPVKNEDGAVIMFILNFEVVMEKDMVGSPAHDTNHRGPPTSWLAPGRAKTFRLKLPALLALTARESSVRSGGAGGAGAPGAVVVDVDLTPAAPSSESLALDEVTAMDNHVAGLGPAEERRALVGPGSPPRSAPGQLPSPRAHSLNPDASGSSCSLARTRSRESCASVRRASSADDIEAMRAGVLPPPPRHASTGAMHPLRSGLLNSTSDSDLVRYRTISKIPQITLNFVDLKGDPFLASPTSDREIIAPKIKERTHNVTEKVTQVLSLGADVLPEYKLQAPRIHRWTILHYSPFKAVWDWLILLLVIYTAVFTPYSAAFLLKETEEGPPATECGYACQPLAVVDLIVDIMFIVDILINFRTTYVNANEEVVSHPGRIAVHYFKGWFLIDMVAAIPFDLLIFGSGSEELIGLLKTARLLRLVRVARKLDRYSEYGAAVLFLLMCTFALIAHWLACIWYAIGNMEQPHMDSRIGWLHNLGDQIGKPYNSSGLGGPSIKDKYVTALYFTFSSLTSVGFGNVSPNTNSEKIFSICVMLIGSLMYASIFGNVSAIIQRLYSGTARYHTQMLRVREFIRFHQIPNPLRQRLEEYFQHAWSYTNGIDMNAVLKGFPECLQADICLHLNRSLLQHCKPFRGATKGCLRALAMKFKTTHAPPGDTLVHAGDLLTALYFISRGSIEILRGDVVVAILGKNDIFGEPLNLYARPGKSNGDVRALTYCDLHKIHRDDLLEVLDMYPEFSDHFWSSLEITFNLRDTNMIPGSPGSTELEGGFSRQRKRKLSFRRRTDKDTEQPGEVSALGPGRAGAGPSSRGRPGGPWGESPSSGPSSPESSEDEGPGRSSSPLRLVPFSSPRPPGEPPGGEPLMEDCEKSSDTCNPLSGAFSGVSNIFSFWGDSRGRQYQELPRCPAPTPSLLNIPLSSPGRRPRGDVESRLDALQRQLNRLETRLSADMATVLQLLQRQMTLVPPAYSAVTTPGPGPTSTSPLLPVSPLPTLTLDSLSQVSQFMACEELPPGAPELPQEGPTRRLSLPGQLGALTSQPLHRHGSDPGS
5-hydroxytryptamine receptor 1D, sequence (P28221 whole entry): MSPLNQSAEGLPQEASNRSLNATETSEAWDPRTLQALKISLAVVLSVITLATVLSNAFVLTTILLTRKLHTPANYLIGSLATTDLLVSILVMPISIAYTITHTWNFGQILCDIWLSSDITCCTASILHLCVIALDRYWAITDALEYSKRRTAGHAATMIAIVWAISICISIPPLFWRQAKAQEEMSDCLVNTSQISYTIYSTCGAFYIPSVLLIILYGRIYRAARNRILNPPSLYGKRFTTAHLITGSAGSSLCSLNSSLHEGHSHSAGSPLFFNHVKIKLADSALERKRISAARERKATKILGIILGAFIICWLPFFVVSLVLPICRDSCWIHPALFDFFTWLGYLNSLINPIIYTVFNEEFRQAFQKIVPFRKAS
CYP3A4, sequence (P08684 whole entry): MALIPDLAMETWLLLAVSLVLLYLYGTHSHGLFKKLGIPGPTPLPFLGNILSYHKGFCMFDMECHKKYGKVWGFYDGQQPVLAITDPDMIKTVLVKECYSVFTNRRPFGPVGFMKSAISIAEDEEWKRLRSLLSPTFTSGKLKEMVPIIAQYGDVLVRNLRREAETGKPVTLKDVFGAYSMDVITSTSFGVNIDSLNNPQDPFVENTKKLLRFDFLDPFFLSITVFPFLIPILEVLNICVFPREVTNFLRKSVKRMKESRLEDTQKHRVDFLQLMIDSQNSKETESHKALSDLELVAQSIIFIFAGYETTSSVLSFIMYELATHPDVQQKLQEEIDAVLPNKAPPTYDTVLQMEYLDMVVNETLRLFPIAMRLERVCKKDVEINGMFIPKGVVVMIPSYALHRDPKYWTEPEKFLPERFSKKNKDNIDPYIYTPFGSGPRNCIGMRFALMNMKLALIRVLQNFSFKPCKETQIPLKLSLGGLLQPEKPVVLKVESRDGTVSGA
CYP2D6, sequence (P10635 whole entry): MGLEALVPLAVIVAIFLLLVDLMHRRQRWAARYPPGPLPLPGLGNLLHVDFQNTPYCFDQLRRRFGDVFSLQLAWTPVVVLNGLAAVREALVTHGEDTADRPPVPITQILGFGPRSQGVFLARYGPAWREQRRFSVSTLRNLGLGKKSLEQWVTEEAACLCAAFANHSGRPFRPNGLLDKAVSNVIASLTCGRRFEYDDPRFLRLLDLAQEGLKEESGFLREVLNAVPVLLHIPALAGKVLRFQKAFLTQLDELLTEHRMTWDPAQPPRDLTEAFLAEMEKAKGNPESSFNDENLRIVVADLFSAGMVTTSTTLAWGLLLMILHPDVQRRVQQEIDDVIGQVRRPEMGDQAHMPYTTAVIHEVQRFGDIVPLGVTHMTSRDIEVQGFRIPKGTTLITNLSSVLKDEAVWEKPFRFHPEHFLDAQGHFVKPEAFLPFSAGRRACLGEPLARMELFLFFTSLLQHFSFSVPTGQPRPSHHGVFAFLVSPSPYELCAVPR
CYP2C9, sequence (P11712 whole entry): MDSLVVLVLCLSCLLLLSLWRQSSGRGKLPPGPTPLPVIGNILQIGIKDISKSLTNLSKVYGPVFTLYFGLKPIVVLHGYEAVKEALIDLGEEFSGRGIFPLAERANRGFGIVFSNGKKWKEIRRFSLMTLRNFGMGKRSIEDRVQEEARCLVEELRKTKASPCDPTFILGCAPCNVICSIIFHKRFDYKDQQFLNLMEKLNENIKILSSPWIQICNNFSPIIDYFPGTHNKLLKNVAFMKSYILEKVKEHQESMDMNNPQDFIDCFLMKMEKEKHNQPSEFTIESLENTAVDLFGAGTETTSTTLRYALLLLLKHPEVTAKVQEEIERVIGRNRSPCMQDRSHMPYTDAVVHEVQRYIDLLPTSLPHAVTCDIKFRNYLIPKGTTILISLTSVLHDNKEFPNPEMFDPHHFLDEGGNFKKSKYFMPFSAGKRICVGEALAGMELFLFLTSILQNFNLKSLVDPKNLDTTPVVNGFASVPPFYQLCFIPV
5-hydroxytryptamine receptor 1B, sequence (P28222 whole entry): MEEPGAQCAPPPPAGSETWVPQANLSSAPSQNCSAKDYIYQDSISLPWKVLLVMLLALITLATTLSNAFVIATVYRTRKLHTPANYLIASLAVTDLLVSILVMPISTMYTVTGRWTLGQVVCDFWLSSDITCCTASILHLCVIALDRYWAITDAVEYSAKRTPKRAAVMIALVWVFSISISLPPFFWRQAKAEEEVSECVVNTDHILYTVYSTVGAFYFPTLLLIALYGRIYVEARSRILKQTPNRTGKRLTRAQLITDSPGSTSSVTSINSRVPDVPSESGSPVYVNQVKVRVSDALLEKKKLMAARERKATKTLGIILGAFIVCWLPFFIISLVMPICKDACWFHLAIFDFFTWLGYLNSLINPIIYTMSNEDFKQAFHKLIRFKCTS

SMILES	Activity [1]	Ki [2]	Activity [3]	Ki [4]	IC50 [5]	also measured
NC1CN(c2ccc3[nH]nc(S(=O)(=O)c4cccc5ccccc45)c3c2)C1	Active	97.9 nM	inactive	3.55 nM	16.5 nM	
CC(C)Cn1nc2ccc(N3CC[C@@H](N)C3)cc2c1S(=O)(=O)c1cccc2ccccc12	Active	260 nM	inactive	75.8 nM	433 nM	
Cn1nc2ccc(N3CC[C@@H](N)C3)cc2c1S(=O)(=O)c1cccc2ccccc12	Active	455 nM	inactive	54.3 nM	444 nM	
Cc1ccc(S(=O)(=O)c2n[nH]c3ccc(N4CCC(N)CC4)cc23)c2ccccc12	Active	493 nM	inactive	3.62 nM	26.7 nM	
NC1CCN(c2ccc3[nH]nc(S(=O)(=O)c4cccc5c(Cl)cccc45)c3c2)CC1	Active	78 nM	inactive	4.52 nM	70.1 nM	
N[C@@H]1CCN(c2ccc3[nH]nc(S(=O)(=O)c4cccc5ccccc45)c3c2)C1	Active	274 nM	inactive			inhibition at 3 µM (CYP2D6): 7%; inhibition at 10 µM (hERG (KCNH2)): 14%; pBBB (Rattus norvegicus [7]): 11 ×10⁻⁶ cm/s; solubility [8]: 63 µg/mL (≈ 161 µM); Ki [9]: > 10000 nM; Ki [10]: 6040 nM; inhibition at 3 µM (CYP3A4): 88%; half-life [11]: 20 min; Ki [12]: 2270 nM; inhibition at 3 µM (CYP2C9): 73%; Ki [13]: 4730 nM; Papp [14]: 0.19 ×10⁻⁶ cm/s; Ki (D(2) dopamine receptor): 2910 nM
CC(C)n1nc2ccc(N3CC[C@@H](N)C3)cc2c1S(=O)(=O)c1cccc2ccccc12	Active	> 3300 nM	inactive	48.7 nM	380 nM	
CC(C)Cn1nc(S(=O)(=O)c2cccc3ccccc23)c2cc(N3CC[C@@H](N)C3)ccc21	Active	> 3300 nM	inactive		203 nM	

Further lines, with some results ahead:

Activity [1]	Ki [2]	Activity [3]	Ki [4]	IC50 [5]	SMILES	also measured
Active	21 nM	inactive			N[C@H]1CCN(c2ccc3[nH]nc(S(=O)(=O)c4cccc5ccccc45)c3c2)C1	
Active	191 nM	inactive		157 nM	CC(C)n1nc(S(=O)(=O)c2cccc3ccccc23)c2cc(N3CC[C@@H](N)C3)ccc21	Activity (Rattus norvegicus [6]): Active
Active	100 nM	inactive			NC1CCN(c2ccc3[nH]nc(S(=O)(=O)c4cccc5ccccc45)c3c2)CC1	
Active	1360 nM	inactive	18.2 nM	88.9 nM	NC1CCN(c2ccc3[nH]nc(S(=O)(=O)c4ccc5ccccc5c4)c3c2)CC1	
Active	583 nM	inactive	24.4 nM	17.5 nM	CN(C)[C@H]1CCN(c2ccc3[nH]nc(S(=O)(=O)c4cccc5ccccc45)c3c2)C1	
Active	> 10000 nM	inactive	13.1 nM	51.7 nM	CC(C)c1ccc(S(=O)(=O)c2n[nH]c3ccc(N4CCC(N)CC4)cc23)cc1	
Active	185 nM	inactive		316 nM	Cn1nc(S(=O)(=O)c2cccc3ccccc23)c2cc(N3CC[C@@H](N)C3)ccc21	
Active	442 nM	inactive		33.7 nM	NC1CCN(c2ccc3[nH]nc(S(=O)(=O)c4cccc(Cl)c4)c3c2)CC1	
Active	423 nM	inactive	0.51 nM	39.6 nM	CN(C)[C@@H]1CCN(c2ccc3[nH]nc(S(=O)(=O)c4cccc5ccccc45)c3c2)C1	
